Literature values, collected in US7550155B2, “Aqueous pharmaceutical compositions of 2,6-diisopropylphenol (propofol) and their uses” (Transform Pharmaceuticals Inc., priority 2002, dated 2009).

Settings: 10% aqueous solution of P188

SMILES: CC(C)c1cccc(C(C)C)c1O [propofol, 2,6-diisopropylphenol]
- Propofol held in aqueous P188 solution: 0.8%
